Measured values: patent US12016901B2, “Tissue catalyzed growth of polymer as epithelial linings for therapy” (priority 2019, dated 2024)

Legend:
catalase = molecular target: T1, catalase (Sus scrofa, UniProt O62839); assay: In vitro inhibition of catalase activity in tissue lysates; assay type: biochemical, pig; details: small intestinal lysates, inhibitor 20 mM, 6 hours, 4° C.
T1 construct: from tissue; host or cells: porcine small intestinal epithelium, homogenized in RIPA buffer (tissue lysate)
T1 sequence (O62839 2-527 limits assumed): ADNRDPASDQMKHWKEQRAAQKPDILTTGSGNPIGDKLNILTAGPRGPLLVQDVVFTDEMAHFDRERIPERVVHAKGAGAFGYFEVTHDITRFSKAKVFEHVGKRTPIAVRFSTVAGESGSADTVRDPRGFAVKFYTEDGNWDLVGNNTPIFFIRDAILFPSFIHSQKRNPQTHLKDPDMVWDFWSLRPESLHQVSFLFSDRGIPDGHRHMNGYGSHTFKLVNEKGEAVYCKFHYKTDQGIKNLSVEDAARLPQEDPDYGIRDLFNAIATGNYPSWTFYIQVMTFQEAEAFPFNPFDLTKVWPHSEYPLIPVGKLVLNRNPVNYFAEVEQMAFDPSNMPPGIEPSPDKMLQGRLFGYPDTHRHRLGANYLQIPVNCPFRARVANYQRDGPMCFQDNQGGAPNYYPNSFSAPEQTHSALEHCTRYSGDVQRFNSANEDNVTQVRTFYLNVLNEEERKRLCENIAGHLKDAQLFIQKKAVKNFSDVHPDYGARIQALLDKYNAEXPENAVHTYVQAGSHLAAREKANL
Procedure: Tissue lysate preparation. Epithelial tissues of the porcine gastrointestinal tract were dissected on ice. The outer mucus layers were removed by aspiration, and then the rinsed tissues [(with 1× phosphate-buffered saline (PBS)] were frozen by liquid nitrogen. Tissues (10 mg) were incubated in the ice-cold lysis buffer (600 μl, RIPA buffer mixed with protease and phosphatase inhibitor cocktail, Sigma-Aldrich) and homogenized to form tissue lysates. The total protein concentrations of tissue lysates were measured by using the bicinchoninic acid (BCA) assay.
In vitro inhibition of catalase activity. 3-amino-1,2,4-triazole was used as the inhibitor. Tissue lysates (10 mg/ml, 100 μl) were incubated in the inhibitor solution (20 mM) for 6 hours at 4° C.

in vivo = details: pig
Procedure: In vivo evolution of pharmacokinetics of the praziquantel-tissue-accelerated polymerization. Pigs were sedated, intubated, and maintained with isoflurane as described above. The gastric fluid was removed from the stomach before administration. […] Praziquantel without the tissue-accelerated polymerization was used as the control. Blood samples were collected from a marginal ear vein at designated time points. Serum samples were separated from blood by centrifugation (1800 G×10 min at 4° C.) and were stored at −80° C. for further analysis. […] Serum praziquantel concentration assessment. Praziquantel concentrations in serum from in vivo experiments were analyzed using Ultra-Performance Liquid Chromatography-Tandem Mass Spectrometry (UPLC-MS/MS). Analysis was performed on a Waters ACQUITY UPLC-I-Class System aligned with a Waters Xevo TQ-S mass spectrometer (Waters Corporation, Milford Mass.). Liquid chromatographic separation was performed on an Acquity UPLC BEH C18 (50 mm×2.1 mm, 1.7-μm particle size) column at 50° C. The mobile phase consisted of aqueous 0.1% formic acid, 10 mM ammonium formate solution (Mobile Phase A) and acetonitrile: 10 mM ammonium formate, 0.1% formic acid solution (95:5 v/v) (Mobile Phase B). […] The composition of 0% Mobile Phase A and 100% Mobile Phase B was held constant until 3.50 minutes. The composition returned to 80% Mobile Phase A at 3.51 minutes and was held at this composition until completion of the run, ending at 5.00 minutes, where it remained for column equilibration. The total run time was 5.00 minutes. […] Sample introduction and ionization was by electrospray ionization (ESI) in the positive ionization mode. Waters MassLynx 4.1 software was used for data acquisition and analysis. Stock solutions of praziquantel were prepared in methanol at a concentration of 500 μg/ml. […] Samples were vortexed, sonicated for 10 minutes, and centrifuged for 10 minutes at 13,000 rpm. 200 μl of supernatant was pipetted into a 96-well plate containing 200 μl of water. Finally, 1.00 μl was injected onto the UPLC-ESI-MS system for analysis.

SMILES: Nc1nc[nH]n1 [catalase-specific inhibitor, 3-amino-1,2,4-triazole]
- decrease of catalytic capacity of lysates (catalase): around 80%

SMILES: O=C(C1CCCCC1)N1CC(=O)N2CCc3ccccc3C2C1 (stereo not drawn) [praziquantel control, Praziquantel]
- AUC (in vivo; Yorkshire): 222 ng·h/mL
- concentration at 6 h (in vivo; Yorkshire): 15.1 ng/mL
- elimination phase (in vivo; Yorkshire): 2 to 6 h
- half-life (in vivo; Yorkshire): 1.3 h
- serum praziquantel concentration at 24 hours (in vivo): no drug was detected
